Experimental data: paper PMC4258349 (International Journal of Medicinal Chemistry, 2014)
Converted amounts (≈) assume the structure as drawn. Where two headings read alike, the source gives them in different places.

Legend:
Shigella spp. [1] = assay: microbe, parasite or virus in culture; format: cell-based; conditions: read-out: Minimum inhibitory concentration (MIC)
Pseudomonas aeruginosa [2] = assay: microbe, parasite or virus in culture; format: cell-based; conditions: read-out: Inhibition zone diameter
Shigella spp. [3] = assay: microbe, parasite or virus in culture; format: cell-based; conditions: 24 h, read-out: Inhibition zone diameter
Aspergillus niger [4] = assay: microbe, parasite or virus in culture; format: cell-based; conditions: read-out: Minimum inhibitory concentration (MIC)
Salmonella typhi [5] = assay: Minimum inhibitory concentration (dilutions, plot of IZD^2 against log concentration); format: cell-based; conditions: Salmonella enterica, read-out: Minimum inhibitory concentration (MIC)
Bacillus subtilis [6] = assay: microbe, parasite or virus in culture; format: cell-based; conditions: read-out: Inhibition zone diameter
Escherichia coli [7] = assay: microbe, parasite or virus in culture; format: cell-based; conditions: read-out: Minimum inhibitory concentration (MIC)
[8] = Relative acid stability (spectrophotometric absorbance); format: physicochemical; conditions: 0.1 mg/mL solution, at λ-max
Description: (§1) The relative thermal and acid stabilities of the complexes were determined spectrometrically. Dilute solutions (0.1 mg/mL) were prepared, their absorption spectra were generated, and the λ-max in each case was noted. The solution of each complex was divided into seven equal portions and the temperature regulated to 20°C, 30°C, 40°C, 50°C, 60°C, 70°C, and 80°C, respectively, for a period of 24 hours. The absorbance in each case was then measured. Similarly, the same concentration of these solutions was prepared at the pH range of 1–6 and the absorbance was measured. These changes in absorbance with temperature and pH, assuming that Beer-Lambert's law is obeyed, are a measure of the stability of the complexes.
The changes in absorbance with pH are a measure of the acid stability of the compounds.

[9] = Relative thermal stability (spectrophotometric absorbance); format: physicochemical; conditions: 0.1 mg/mL solution, 24 hours, at λ-max
Description: as §1

[10] = Relative acid stability (spectrophotometric absorbance); format: physicochemical; conditions: 0.1 mg/mL solution, at λ-max; remark: listed apart in the source
Aspergillus niger [11] = assay: Agar well diffusion, inhibition zone diameter; format: cell-based; conditions: 48 h, read-out: Inhibition zone diameter
Staphylococcus aureus [12] = assay: microbe, parasite or virus in culture; format: cell-based; conditions: read-out: Inhibition zone diameter
Bacillus subtilis [13] = assay: microbe, parasite or virus in culture; format: cell-based; conditions: read-out: Minimum inhibitory concentration (MIC)
Salmonella typhi [14] = assay: Agar well diffusion, inhibition zone diameter; format: cell-based; conditions: Salmonella enterica, 24 h, read-out: Inhibition zone diameter
Pseudomonas aeruginosa [15] = assay: microbe, parasite or virus in culture; format: cell-based; conditions: read-out: Minimum inhibitory concentration (MIC)
Escherichia coli [16] = assay: microbe, parasite or virus in culture; format: cell-based; conditions: read-out: Inhibition zone diameter
Staphylococcus aureus [17] = assay: microbe, parasite or virus in culture; format: cell-based; conditions: read-out: Minimum inhibitory concentration (MIC)
[18] = Description: Saturated solution (10 mL) of each of the complexes and ligands at ambient temperature (28°C) was evaporated to dryness in an evaporating dish. The mass of the solid left in each case was determined. The solubilities were calculated using the relation: (1) S=mass/volume×1000. The solubilities of the complexes were compared with those of the ligands.
The solubilities were determined at 28°C.

Row | SMILES | MIC (Shigella spp. [1]) | zone of inhibition at 5000 µg/mL (Shigella spp. [3]) | MIC (Salmonella typhi [5]) | Absorbance at pH 1 [8] | Absorbance at pH 2 [8] | Absorbance at pH 3 [8] | Absorbance at pH 4 [8] | Absorbance at pH 5 [8] | Absorbance at pH 6 [8] | Absorbance at 20°C [9] | Absorbance at 30°C [9] | Absorbance at 40°C [9] | Absorbance at 50°C [9] | Absorbance at 60°C [9] | Absorbance at 70°C [9] | Absorbance at 80°C [9] | Absorbance at pH 7 [10] | zone of inhibition at 5000 µg/mL (Aspergillus niger [11]) | zone of inhibition at 5000 µg/mL (Salmonella typhi [14]) | other results
1 | CC1(C)S[C@@H]2[C@H](NC(=O)[C@H](N)c3ccc(O)cc3)C(=O)N2[C@H]1C(=O)O [Amoxicillin] | 11 mg/L (≈ 30.1 µM) | 30 mm | 11 mg/L (≈ 30.1 µM) | 0.387 | 0.404 | 0.499 | 0.511 | 0.603 | 0.620 | 0.661 | 0.664 | 0.643 | 0.428 | 0.369 | 0.312 | 0.126 | 0.664 | 35 mm | 35.5 mm | zone of inhibition at 5000 µg/mL (Pseudomonas aeruginosa [2]; 24 h): 28 mm; MIC (Aspergillus niger [4]): 15 mg/L (≈ 41 µM); zone of inhibition at 5000 µg/mL (Bacillus subtilis [6]; 24 h): 30 mm; MIC (Escherichia coli [7]): 12.5 mg/L (≈ 34.2 µM); zone of inhibition at 5000 µg/mL (Staphylococcus aureus [12]; 24 h): 30 mm; MIC (Bacillus subtilis [13]): 12.5 mg/L (≈ 34.2 µM); MIC (Pseudomonas aeruginosa [15]): 14 mg/L (≈ 38.3 µM); zone of inhibition at 5000 µg/mL (Escherichia coli [16]; 24 h): 33 mm; MIC (Staphylococcus aureus [17]): 12.5 mg/L (≈ 34.2 µM)
2 | Cc1onc(-c2ccccc2Cl)c1C(=O)N[C@@H]1C(=O)N2[C@@H]1SC(C)(C)[C@@H]2C(=O)O [Cloxacillin] | 12.5 mg/L (≈ 28.7 µM) | 30 mm | 14.5 mg/L (≈ 33.3 µM) | 0.437 | 0.449 | 0.550 | 0.554 | 0.696 | 0.704 | 0.721 | 0.727 | 0.683 | 0.455 | 0.337 | 0.190 | 0.184 | 0.722 | 30 mm | 27 mm | Solubility [18]: Negligible; zone of inhibition at 5000 µg/mL (Pseudomonas aeruginosa [2]; P. aeruginosa clinical isolate, 5 mg/mL, 32°C 24 hours): 20 mm; MIC (Aspergillus niger [4]; A. niger clinical isolate): 14.5 mg/L (≈ 33.3 µM); zone of inhibition at 5000 µg/mL (Bacillus subtilis [6]; B. subtilis clinical isolate, 5 mg/mL, 32°C 24 hours): 32 mm; MIC (Escherichia coli [7]; E. coli clinical isolate): 14.5 mg/L (≈ 33.3 µM); zone of inhibition at 5000 µg/mL (Staphylococcus aureus [12]; S. aureus clinical isolate, 5 mg/mL, 32°C 24 hours): 31.5 mm; MIC (Bacillus subtilis [13]; B. subtilis clinical isolate): 12.5 mg/L (≈ 28.7 µM); MIC (Pseudomonas aeruginosa [15]; P. aeruginosa clinical isolate): 22 mg/L (≈ 50.5 µM); zone of inhibition at 5000 µg/mL (Escherichia coli [16]; E. coli clinical isolate, 5 mg/mL, 32°C 24 hours): 28 mm; MIC (Staphylococcus aureus [17]; S. aureus clinical isolate): 12.5 mg/L (≈ 28.7 µM)
